Drawing on ChEMBL document CHEMBL2434905, “2-Amino-6-chloro-3,4-dihydroquinazoline: A novel 5-HT3 receptor antagonist with antidepressant character” (Bioorg Med Chem Lett, 2013), this text covers Ki and Activity for 6 compounds.

Usually Ki stands for the equilibrium dissociation constant of an inhibitor or competing ligand from its target.

In experiment [1] the target is T1, 5-hydroxytryptamine receptor 3A (Homo sapiens, UniProt P46098).
T1 sequence (P46098 whole entry): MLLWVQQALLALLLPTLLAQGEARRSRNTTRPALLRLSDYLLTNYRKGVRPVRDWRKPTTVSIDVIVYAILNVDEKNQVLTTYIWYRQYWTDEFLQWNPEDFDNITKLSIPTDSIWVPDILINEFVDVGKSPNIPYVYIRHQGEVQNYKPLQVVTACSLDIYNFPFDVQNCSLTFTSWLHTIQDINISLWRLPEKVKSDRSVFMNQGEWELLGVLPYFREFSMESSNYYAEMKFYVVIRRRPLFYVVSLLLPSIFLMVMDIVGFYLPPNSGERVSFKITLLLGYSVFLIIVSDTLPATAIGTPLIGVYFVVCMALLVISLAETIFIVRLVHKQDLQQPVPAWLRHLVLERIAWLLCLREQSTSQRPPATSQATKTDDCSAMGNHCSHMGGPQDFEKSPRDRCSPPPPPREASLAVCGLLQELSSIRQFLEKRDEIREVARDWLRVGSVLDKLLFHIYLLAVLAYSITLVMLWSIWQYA
Description: Displacement of [3H]GR65630 from human 5-HT3A receptor expressed in HEK293 cells by liquid scintillation counting analysis. The class given is cell-based. For orientation: Loss of bound radioactivity is the signal in a displacement assay; it reports binding, not function.

Experiment [2] relates to Mus musculus. Description: Antidepressant activity in ICR mouse assessed as immobility time at 20 mg/kg, ip by tail suspension test. It is filed as functional, organism-based. Also on record: dose 20 mg/kg.
Experiment [3] deals with T1, 5-hydroxytryptamine receptor 3A. Description: Displacement of [3H]GR65630 from 5-HT3 receptor (unknown origin) expressed in mouse/rat NG108-15 cells after 30 mins by liquid scintillation counting analysis. It is filed as cell-based.
Experiment [4] addresses T2, 5-hydroxytryptamine receptor 3A (Mus musculus, UniProt P23979).
T2 sequence (P23979 whole entry): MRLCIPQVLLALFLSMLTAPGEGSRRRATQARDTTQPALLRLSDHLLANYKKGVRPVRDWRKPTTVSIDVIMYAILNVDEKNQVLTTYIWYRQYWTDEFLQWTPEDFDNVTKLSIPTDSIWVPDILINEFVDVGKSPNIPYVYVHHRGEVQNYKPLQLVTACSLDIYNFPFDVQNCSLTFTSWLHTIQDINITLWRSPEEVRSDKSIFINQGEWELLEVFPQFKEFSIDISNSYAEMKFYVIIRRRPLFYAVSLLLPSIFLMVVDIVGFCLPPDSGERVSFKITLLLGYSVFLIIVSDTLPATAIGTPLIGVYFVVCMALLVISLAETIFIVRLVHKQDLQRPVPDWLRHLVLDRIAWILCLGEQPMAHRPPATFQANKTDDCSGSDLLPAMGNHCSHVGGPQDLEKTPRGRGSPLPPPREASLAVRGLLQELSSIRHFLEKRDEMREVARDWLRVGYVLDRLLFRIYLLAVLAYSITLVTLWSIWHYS
The experiment can be described thus: Displacement of [3H]LY278584 from mouse 5-HT3A receptor.

Activity calls are given as the source filed them. The calls are words filed in the database; no cut-off is given here.

As for `CN1CCN2c3ncccc3Cc3ccccc3C2C1` (stereo unspecified) [MIRTAZAPINE], the affinity in experiment [1], expressed as Ki, was 2900 nM.

Take `CNCCCN1c2ccccc2CCc2ccccc21`: the outcome in experiment [2] was Active.

Consider `CN(C)CCCN1c2ccccc2CCc2ccccc21`, for which the result in experiment [2] was Active.

In the case of `CNCCC(Oc1ccc(C(F)(F)F)cc1)c1ccccc1` (stereo unspecified), the outcome in experiment [2] was Active.

`NC(N)=Nc1cccc(Cl)c1` yielded a Ki in experiment [3] of 32 nM.

Turning to `NC1=Nc2cc(Cl)ccc2CN1`, affinity in experiment [4] was put at a Ki of 1970 nM.
